We go through 13 substances from patent US20230144436A1, “MUSCLE TARGETING COMPLEXES AND USES THEREOF FOR TREATING MYOTONIC DYSTROPHY” (Dyne Therapeutics, Inc., priority 2020, published 2023).

The series has as its system DMPK. As to the kind of experiment: DMPK knockdown by transfected antisense oligonucleotides in DM1 C15 myotubes at 0.5 nM and 50 nM. Format: cell-based. Particulars: 72 hours; for Normalized DMPK Remaining: relative to vehicle control = 1.00. As to the method:
Two hundred and thirty-six oligonucleotides for targeting DMPK were generated using in silico analysis. Each individual oligonucleotide was evaluated for their ability to target DMPK in cellulo at two doses—0.5 nM (low dose) and 50 nM (high dose).
Briefly, DM1 C15 immortalized myoblasts were cultured in T-75 flasks until near confluency (˜80% confluent). Myoblasts were then disrupted with trypsin and seeded into 96-well microplates at a density of 50,000 cells/well. Cells were allowed to recover overnight before the growth media was washed out and replaced with a no-serum media to induce differentiation into myotubes. Differentiation proceeded for seven days prior to treatment with DMPK-targeting oligonucleotides.
On day seven following induction of differentiation, DM1 C15 myotubes were transfected with an individual oligonucleotide using 0.3 μL of Lipofectamine MessengerMax per well. All oligonucleotides were tested at both 0.5 nM and 50 nM final concentrations in biological triplicates. After treatment with oligonucleotides, cells were incubated for 72 hours prior to being harvested for total RNA. cDNA was synthesized from the total RNA extracts and qPCR was performed to determine expression levels of DMPK in technical quadruplicate. All qPCR data were analyzed using a traditional […] method and were normalized to a plate-based negative control that comprised cells treated with vehicle control (0.3 μL/well Lipofectamine MessengerMax without any oligonucleotide). Results from these experiments are shown in Table 10. ‘Normalized DMPK Remaining’ for each antisense oligonucleotide in Table 10 refers to the expression level of DMPK in cell treated with said antisense oligonucleotide relative to the negative control that comprised cells treated with vehicle control (wherein the expression level of the negative control has been normalized to equal 1.00)

Setting [1] is: 0.5 nM oligonucleotide, qPCR, relative to vehicle control.
Setting [2] is: 50 nM oligonucleotide, qPCR, relative to vehicle control.

For “340 (GUACAGGUAGUUCUCAUCCU; chemistry not given here) [compound 340]”, the “Percent DMPK Reduction” value was determined as 31.52% under setting [1] and 65.57% under setting [2]. Also, the “Normalized DMPK Remaining” value (0.5 nM oligonucleotide, qPCR) worked out at 0.68 and the “Normalized DMPK Remaining” value (50 nM oligonucleotide, qPCR) is given as 0.34.

As to “246 (GGACGGCCCGGCUUGCUGCC; chemistry not given here) [compound 246]”, the “Percent DMPK Reduction” value under setting [1] worked out at 58.25% and the “Percent DMPK Reduction” value under setting [2] was 69.30%. Also, the “Normalized DMPK Remaining” value is, setting by setting: (0.5 nM oligonucleotide, qPCR) 0.42; (50 nM oligonucleotide, qPCR) 0.31.

As for “412 (AGGUACAGGUAGUUCUCAUC; chemistry not given here) [compound 412]”, for the setting “0.5 nM oligonucleotide”, the “Percent DMPK Reduction” value is on record as 18.68% and the “Normalized DMPK Remaining” value is on record as 0.81. Besides, under “50 nM oligonucleotide”, the “Percent DMPK Reduction” value came to 58.92% and the “Normalized DMPK Remaining” value came out at 0.41.

On to “474 (AGUCGGCCAGGCGGAUGUGG; chemistry not given here) [compound 474]”, for which, under “0.5 nM oligonucleotide”, the “Percent DMPK Reduction” value amounted to 6.15% and the “Normalized DMPK Remaining” value was determined as 0.94. Besides, where the note is “50 nM oligonucleotide”, the “Percent DMPK Reduction” value stood at 67.44% and the “Normalized DMPK Remaining” value came out at 0.33.

For “465 (GCAUCCAAAACGUGGAUUGG; chemistry not given here) [compound 465]”, the “Percent DMPK Reduction” value is, setting by setting: (0.5 nM oligonucleotide) 2.54%; (50 nM oligonucleotide) 72.69%. Moreover, the “Normalized DMPK Remaining” value runs as follows: (0.5 nM oligonucleotide) 0.97; (50 nM oligonucleotide) 0.27.

As for “450 (ACAGAACAACGGCGAACAGG; chemistry not given here) [compound 450]”, under “0.5 nM oligonucleotide”, the “Percent DMPK Reduction” value was 2.07% and the “Normalized DMPK Remaining” value turned out to be 0.98. In addition, where the note is “50 nM oligonucleotide”, the “Percent DMPK Reduction” value is recorded as 55.96% and the “Normalized DMPK Remaining” value worked out at 0.44.

As to “343 (CGUAGUUGACUGGCGAAGUU; chemistry not given here) [compound 343]”, the “Percent DMPK Reduction” value is, setting by setting: under setting [1], 25.26%; under setting [2], 61.52%. For the same substance, the “Normalized DMPK Remaining” value is, setting by setting: (0.5 nM oligonucleotide, qPCR) 0.75; (50 nM oligonucleotide, qPCR) 0.38.

For “425 (ACCAGGUACAGGUAGUUCUC; chemistry not given here) [compound 425]”, where the note is “0.5 nM oligonucleotide”, the “Percent DMPK Reduction” value amounted to 16.09% and the “Normalized DMPK Remaining” value is recorded as 0.84. Also, under “50 nM oligonucleotide”, the “Percent DMPK Reduction” value was determined as 76.96% and the “Normalized DMPK Remaining” value worked out at 0.23.

With “371 (GUGGAAUCCGCGUAGAAGGG; chemistry not given here) [compound 371]”, the “Percent DMPK Reduction” value under setting [1] was found to be 30.55% and the “Percent DMPK Reduction” value under setting [2] was found to be 49.34%. In addition, the “Normalized DMPK Remaining” value is 0.69 (0.5 nM oligonucleotide, qPCR) and 0.51 (50 nM oligonucleotide, qPCR).

As for “421 (GCGAAUACACCCAGCGCCCA; chemistry not given here) [compound 421]”, where the note is “0.5 nM oligonucleotide”, the “Percent DMPK Reduction” value is reported as 6.94% and the “Normalized DMPK Remaining” value came out at 0.93. Moreover, under “50 nM oligonucleotide”, the “Percent DMPK Reduction” value is given as 69.72% and the “Normalized DMPK Remaining” value came out at 0.30.

On to “430 (GUCUAUGGCCAUGACAAUCU; chemistry not given here) [compound 430]”, for which the “Percent DMPK Reduction” value is recorded as -11.00% (0.5 nM oligonucleotide) and 73.11% (50 nM oligonucleotide). The “Normalized DMPK Remaining” value reads like this: (0.5 nM oligonucleotide) 1.11; (50 nM oligonucleotide) 0.27.

Consider “452 (CGGCCUCAGCCUCUGCCGCA; chemistry not given here) [compound 452]”, for which, where the note is “0.5 nM oligonucleotide”, the “Percent DMPK Reduction” value is 6.71% and the “Normalized DMPK Remaining” value was determined as 0.93. Further, under “50 nM oligonucleotide”, the “Percent DMPK Reduction” value turned out to be 60.06% and the “Normalized DMPK Remaining” value is 0.40.

Regarding “276 (UGUGCACGUAGCCAAGCCGG; chemistry not given here) [compound 276]”, the “Percent DMPK Reduction” value is, setting by setting: under setting [1], 24.74%; under setting [2], 75.09%. The “Normalized DMPK Remaining” value (0.5 nM oligonucleotide, qPCR) is recorded as 0.75 and the “Normalized DMPK Remaining” value (50 nM oligonucleotide, qPCR) was 0.25.
